Assay results published in EP0882015B1, “DIPHENYL STILBENES AS PRODRUGS TO COX-2 INHIBITORS” (Merck Frosst Canada & Co., priority 1996, dated 1997).

Test: Rat plasma levels, per os pharmacokinetics in rats (conversion of prodrug to active COX-2 inhibitor)
Type: in vivo, Male Sprague Dawley rats
Settings: maximum plasma concentration of the corresponding lactone (active COX-2 inhibitor) observed in rats dosed at 20 mg/kg orally with the indicated prodrug
Text: The animals are housed, fed and cared for according to the Guidelines of the Canadian Council on Animal Care.
Male Sprague Dawley rats (325-375 g) are fasted overnight prior to each PO blood level study.
The rats are placed in the restrainer one at a time and the box is firmly secured. The zero blood sample is obtained by nicking a small (1 mm or less) piece off the tip of the tail. The tail is then stroked with a firm but gentle motion from the top to the bottom to milk out the blood. Approximately 1 mL of blood is collected into a heparinized vacutainer tube.
Compounds are prepared as required, in a standard dosing volume of 10mL/kg, and administered orally by passing a 16 gauge, 3" gavaging needle into the stomach.
Subsequent bleeds are taken in the same manner as the zero bleed except that there is no need to nick the tail again. The tail is cleaned with a piece of gauze and milked/stroked as described above into the appropriately labelled tubes.
Immediately after sampling, blood is centrifuged, separated, put into clearly marked vials and stored in a freezer until analysed. […]
For analysis, aliquots are diluted with an equal volume of acetonitrile and centrifuged to remove protein precipitate. […] Quantitation is done relative to a clean blood sample spiked with a known quantity of drug. […]

Plasma Levels: 1.0 µM
SMILES: COC(=O)/C(=C(\C)c1ccc(S(C)(=O)=O)cc1)c1ccccc1 [Example 1, (E)-3-(4-Methylsulfonyl)phenyl-2-phenylbut-2-enoic acid methyl ester]
